Test results: patent publication US20240173324A1, “COMBINATORY THERAPY FOR PREVENTING, INHIBITING, TREATING, OR REDUCING ANEURYSMS” (The Regents of the University of California, priority 2021, published 2024)
“And” between values parts separate entries of the source, which are not always exact repeats. Equal values may be shown once.

Columns and labels:
aortic H4B = test: HPLC determination of aortic H4B bioavailability; assay type: in vivo, mice; details: FA 15 mg/kg/day oral
Procedure: After centrifugation, 10 μl of the supernatant was injected into a HPLC system equipped with a fluorescent detector (Schimadzu America Inc, Carlsbad, CA, USA). Excitation and emission wavelengths of 350 nm and 450 nm were used to measure H4B levels.

[1] = system: Ang II infused apoE null mice; test: Incidence of AAA in Ang II infused apoE null mice (ultrasound and post-mortem inspection); assay type: in vivo
Excerpt: The use of animals and experimental procedures were approved by the Institutional Animal Care and Usage Committee (IACUC) at the University of California Los Angeles (UCLA). Breeders of apoE null mice were purchased from Jackson Labs (Bar Harbor, ME, Strain B6.129P2-ApoEtmlUnc/J), and bred in house. Animals were kept in ventilated cages, with free access to water and standard chow under the standard care of Division of Laboratory Animal Medicine (DLAM) staff. Male apoE null mice of 6-8 months old were used for experimentation.
The animals receiving Ang II infusion were anesthetized in an isoflurane chamber with 5% isoflurane, and then moved to a nose cone with sustained supply of 1.5-2% isoflurane to maintain the anesthetic state. The back area between the shoulder blades was cleaned of hair and disinfected. Then a small incision was made at the cleaned site; the osmotic minipump (Alzet, model 2004) containing Ang II (1000 ng/kg/min, Sigma-Millipore, St. Louis, MO, USA) was subcutaneously implanted into the mice. The surgical wounds were closed with surgical staples, and then animals were allowed to recover in a heated cage.
At the end of the study period of 4 weeks, animals were euthanized with CO2. The aortas were rapidly removed from the body, rinsed with ice cold Krebs/HEPES buffer, and cleaned of connective tissue and fat. The incidence of AAA was determined by ultrasound assessment of abdominal aortic expansion as described above, and by direct inspection of the abdominal aortas post-mortem.

[2] = system: Ang II infused hph-1 mice; details: oral FA administration; cited from earlier work
[3] = system: Ang II infused apoE null mice; test: Verhoeff-Van Gieson (VVG) staining, medial elastin degradation; assay type: in vivo; details: FA 15 mg/kg/day oral
Procedure: To assess medial elastin degradation, VVG staining was performed using aortic sections from all experimental groups.
Paraffin embedded aortic sections were deparaffinized by sequential washes in xylene (2x), descending ethanol from 100%, 90%, 75% to 50%, and distilled water. Sections were stained in Verhoeff s solution for 70 min, followed by differentiation in 2% ferric chloride for 90 seconds. Sections were incubated with 5% sodium thiosulfate for 60 seconds, followed by counterstaining with Van Gieson's solution. Sections were then subjected to dehydration with 95% and 100% alcohol, and finally washed in xylene. After drying, sections were mounted with Permount mounting media (SP15-100, Thermo-Fisher Scientific, Pittsburgh, PA, USA), and images captured by a Nikon TE2000-U fluorescent microscope.

[4] = system: Fbnic1^C1039G/+ Marfan Syndrome (MFS) mice; details: FA diet; cited from earlier work
[5] = system: total superoxide production in aortas; test: Electron spin resonance determination of total aortic superoxide production; assay type: in vivo, mice; details: FA 15 mg/kg/day oral; ESR
Excerpt: Therefore, changes in aortic total superoxide production and eNOS uncoupling activity from all treatment groups is examined herein. Freshly prepared aortic lysates were subjected to electron spin resonance (ESR) determination of superoxide production with and without L-NAME, an inhibitor of NOS. If eNOS is functional and coupled, its inhibition by L-NAME will increase the measured superoxide, as eNOS is producing NO to scavenge superoxide. However, if eNOS is dysfunctional, uncoupled and producing superoxide, its inhibition with L-NAME will lead to a decrease in measured superoxide.
Aortic superoxide production was determined by electron spin resonance (ESR). In brief, freshly isolated aortas were homogenized in lysis buffer containing 1:100 protease inhibitor cocktail (MilliporeSigma, P8340), centrifuged at 12,000 rpm for 15 min, and protein supernatant collected. After determination of protein concentration using a protein assay kit (Bio-Rad), five μg of the protein was loaded into ice-cold and nitrogen bubbled modified Krebs/HEPES buffer (KHB, in mmol/L: NaCl 99; KCl 4.7; MgSO41.2; KH2PO4 1.0; CaCl2 1.9; NaHCO3 25; glucose 11.1, NaHEPES 20) containing diethyldithiocarbamic acid (5 mmol/L), deferoxamine (25 mmol/L), and the superoxide specific spin trap methoxycarbonyl-2,2,5,5-tetramethylpyrrolidine (CMH, 500 μmol/L, Axxora, San Diego, CA, USA). […]

[6] = system: Ang II-infused apoE null mice; details: oral FA administration, previously observed; cited from earlier work
[7] = system: Ang II infused apoE null mice; test: Ultrasound detection of abdominal aortic size (enlargement of abdominal aortas); assay type: in vivo; details: FA 15 mg/kg/day oral; weekly ultrasound over 4 weeks; vs. apoE+Ang II
Procedure: The back area between the shoulder blades was cleaned of hair and disinfected. Then a small incision was made at the cleaned site; the osmotic minipump (Alzet, model 2004) containing Ang II (1000 ng/kg/min, Sigma-Millipore, St. Louis, MO, USA) was subcutaneously implanted into the mice. The surgical wounds were closed with surgical staples, and then animals were allowed to recover in a heated cage. […] The enlargement of abdominal aortas in various experimental groups was monitored using ultrasound. Animals were anesthetized with isoflurane and placed on a temperature-controlled table. Isoflurane levels were adjusted throughout the experiment to maintain heart rate between 400 and 500 bpm while keeping the animal sufficiently anesthetized. Hair was removed from the abdomen using a hair removal cream, and preheated ultrasound transmission gel was applied onto the abdomen area. An ultrasound probe was placed on the gel to visualize aorta transversely (Vevo 2100, MS400, 30 MHz. FUJIFILM VisualSonics, Inc., Toronto, Ontario, Canada). The aorta was identified using Doppler measurement for the presence of pulsatile flow.

[8] = system: Ang II infused apoE null mice; test: H&E staining of aortic sections, vascular remodeling; assay type: in vivo; details: FA 15 mg/kg/day oral
Excerpt: To examine the extent of the vascular remodeling that occurred during AAA in the presence of various treatments, freshly isolated aortas were embedded in paraffin, sectioned and stained with hematoxylin-eosin (H&E).
At the end of the study period of 4 weeks, animals were euthanized with CO2. The aortas were rapidly removed from the body, rinsed with ice cold Krebs/HEPES buffer, and cleaned of connective tissue and fat. […] For histological analyses, small sections (5 mm) of the abdominal aortas of the suprarenal region were removed and fixed in 4% paraformaldehyde overnight, followed by incubation for 24 hours in 10% sucrose, and then embedded in paraffin. In the case of AAA, a center section of the AAA was used for these analyses. Sections were sliced at 5μm at UCLA Pathology Core, and subjected to hematoxylin-eosin (H&E) staining following standard protocol.

AAA formation = details: both low and high dose of Nifedipine alone; earlier study; cited from earlier work

With `Nc1nc2ncc(CNc3ccc(C(=O)N[C@@H](CCC(=O)O)C(=O)O)cc3)nc2c(=O)[nH]1` [FA, folic acid] the “Ang II induced H4B deficiency” value (aortic H4B) was “significantly abrogated”, the “incidence of AAA” value ([1]; FA 15 mg/kg/day oral in chow, 4 weeks Ang II infusion, Ang II alone 85.71%) was 18.75% and the “numbers of animals developed AAA and animals examined” value ([1]; FA 15 mg/kg/day, b210 developed out of examined, b50 examined/developed) was 6 out of 32 and 32/6. The AAA formation [2] was “markedly attenuated”, the “elastin degradation featured by flattening and breakdown” value [3] was “significantly attenuated” and the “formation of TAA and AAA” value [4] was “attenuated formation of TAA and AAA”. For the same compound, the “total superoxide production in aortas” value [5] was “markedly abrogated”, the aneurysm formation [6] was “abrogated aneurysm formation” and the “enlargement of abdominal aortas” value [7] was “significantly attenuated”. For the same compound, the “vascular remodeling featured by elastic degradation and adventitial hypertrophy” value [8] was “markedly attenuated”.
For `COC(=O)C1=C(C)NC(C)=C(C(=O)OC)C1c1ccccc1[N+](=O)[O-]` [Nifedipine], the AAA formation (AAA formation) is given as “able to attenuate AAA formation”.
